Results as given in paper PMC10591299, “Targeting SHP2 with an Active Site Inhibitor Blocks Signaling and Breast Cancer Cell Phenotypes” (ACS Bio & Med Chem Au, 2023).
pIC50: −log10 of the molar value.

Tests used:
BT474 cells = test: Colony formation in soft agar, BT474; format: cell-based; conditions: BT474, 500 nM, 10 days, versus vehicle
Description: Since SHP2 is essential for the growth and transformation of BC cells,[8],[9],[11] we determined the effect of SHP2 inhibition with CNBCA in 2D and 3D culture systems. For the effect on cell growth, BC cells (BT474 and MDA-MB468) were seeded in 2D culture and treated with a single concentration of CNBCA (500 nM), the concentration that provided a 50% inhibition of SHP2 mediated signaling in BT474 cells. Images were collected at the start and every 24 h for a total of 72 h (3 days). […] For effect on anchorage independent growth, approximately 10^6 cells were seeded in soft agar as described previously,[24] and treated with CNBCA at 500 nM concentration for 10 days with refeeding and adjustment of compound concentration. […] Finally, the effect of CNBCA on cancer stem cell properties was determined by the suspension assay, in which only cells with stem-like properties only can grow and form mammospheres.[7],[24],[36] Approximately 10^6 cells were seeded in nonadherent 6 cm plates and treated with CNBCA (500 nM) for 10 days with complementation of media and drug concentration.
For colony formation studies, we used the soft agar assay, which keeps cells anchorage independently, allowing determination on the transformation phenotype of cancer cells, including breast cancer cells.[11],[35] For this assay, we first prepared a 5% stock suspension in PBS by boiling it in a microwave. […]

SHP2 [1] = target: T1, SHP2 (Homo sapiens, UniProt Q06124); test: Enzyme kinetic study (Michaelis-Menten, Lineweaver-Burk) with DiFMUP; format: biochemical; conditions: Km increased without change in Vmax
T1 construct: the GST fusion of the PTP domains of SHP2, SHP1, and PTP1B were produced and purified as reported by us previously; GST; made in house
T1 sequence (Q06124 247-517 limits assumed): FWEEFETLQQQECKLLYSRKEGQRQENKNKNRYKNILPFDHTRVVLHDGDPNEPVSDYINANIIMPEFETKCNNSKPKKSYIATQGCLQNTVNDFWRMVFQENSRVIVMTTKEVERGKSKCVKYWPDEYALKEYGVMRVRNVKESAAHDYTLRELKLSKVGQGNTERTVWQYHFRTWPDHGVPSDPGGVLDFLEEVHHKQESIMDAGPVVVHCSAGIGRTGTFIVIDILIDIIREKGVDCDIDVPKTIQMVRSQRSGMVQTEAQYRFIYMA
Description: As such, its mechanism of inhibition is expected to be through competitive binding to the active site. To verify this point, we conducted enzyme kinetic studies using the artificial substrate DiFMUP in the presence and absence of CNBCA. Briefly, 400 μM DiFMUP in the PTPase buffer was added to the 12th well in the 96-well plate and then serially diluted to as low as 3.12 μM in the successive wells. After adding the enzyme to a final concentration of 1.0 nM in a total volume of 100 μL, the fluorescence of the enzyme reaction rate was measured for a total of 3 min at 10 s interval in the Synergy 4 plate reader at the excitation and emission wavelengths of 360 and 460 nm, respectively. The data was transformed into relative fluorescence unit (RFU) per second and plotted using the Graphpad software to produce the Michaelis–Menten and the Lineweaver–Burk plots.
In these reactions, the enzyme was added last, and the fluorescence was read for 3 min at 10 s interval. Changes in fluorescence intensity were used to calculate the Km of the SHP2 enzyme for DiFMUP in the presence and absence of CNBCA. The Graphpad Prism was used to prepare the Michaelis–Menten and Lineweaver–Burk plots and to determine the Km values.

SHP2 [2] = target: T1, SHP2; test: PTPase assay, GST-fusion PTP domain of SHP2, DiFMUP substrate; format: biochemical
Description: After completion of synthesis, both CNBCA and CNBBA were purified on silica gel, and purity was determined by HPLC. The purified compounds were then tested for their effect on the SHP2 enzyme activity and on the activity of the selected control PTPs (SHP1 and PTP1B) by the phosphotyrosyl phosphatase (PTPase) assay as described previously.[30],[31] First, the GST fusion of the PTP domains of SHP2, SHP1, and PTP1B were produced and purified as reported by us previously.[32] The reactions were performed in a buffer containing 10 mM Tris-HCl (pH 7.2), 100 mM NaCl, 1 mM EDTA, 1 mM dithiothreitol (DTT), and 0.01% Tween-20. Briefly, CNBCA or CNBBA was added first in a serial dilution ranging from 100 μM to 97 nM followed by the enzymes (SHP2, SHP1, or PTP1B) to a final concentration of 1 nM. After 5 min of incubation at room temperature, the reactions were started by adding the artificial substrate DiFMUP (6,8-difluoro-4-methylumbelliferyl phosphate) to a final concentration of 20 μM for SHP2, 35 μM for SHP1, and 10 μM for PTP1B in a reaction volume of 100 μL; variations in DiFMUP concentrations reflect the reported Km values for the respective PTPs.[33] The complete mixture was incubated at 37 °C for 20 min, and fluorescence intensity was measured by the Synergy 4 plate reader at the excitation and emission wavelengths of 360 and 460 nm, respectively. The half inhibitory concentration (IC50) value of each compound was calculated and plotted using Graphpad Prism software.
We used the PTPase assay described previously[30],[31] to evaluate the effect of the newly synthesized compounds on the enzymatic activity of SHP2, SHP1, and PTP1B. The PTP domains of the indicated proteins were prepared as reported by us recently.[32] The artificial PTP substrate DiFMUP (6,8-Difluoro-4-Methylumbelliferyl Phosphate) was purchased from Invitrogen. The purified proteins were dialyzed into a phosphatase buffer containing 10 mM Tris-HCl ([…]), 100 mM NaCl, 1.0 mM EDTA, 1.0 mM dithiothreitol (DTT), and 0.01% Tween-20. Briefly, the PTPase reactions were performed in 100 μL volume containing 1 nM enzyme, inhibitors in serial dilutions (12 nM to 100 μM), and DiFMUP to a final concentration of 20 μM for SHP2, 35 μM for SHP1, and 10 μM for PTP1B. Differences in DiFMUP concentrations reflect the reported Km values for each PTP.[37] The mixtures were incubated at 37 °C for 20 min and transferred to 96 well plates, and the fluorescence intensity was measured by a Synergy 4 plate reader at the excitation and emission wavelengths of 360 and 460 nm, respectively. Graphpad Prism software was used to calculate the IC50 values.

mechanism of inhibition (SHP2 [1]): competitive inhibitor | pIC50 (SHP2 [2]; PTP domain, 1 nM enzyme, 20 μM DiFMUP, 37 °C 20 min): 6.06 | selectivity ratio SHP2 (reference) (SHP2 [2]; SHP2 IC50 as reference): 1.0 | fold difference (SHP2 [2]; SHP2 IC50 relative to CNBCA): 1.0 fold
Structure (SMILES): CCCCCCCCCOc1ccc(-c2ccc(C(=O)O)cc2)cc1CCCC(=O)O [CNBCA, 3′-(3-carboxypropyl)-4′-(nonyloxy)-[1,1′-biphenyl]-4-carboxylic acid]
colony formation in soft agar (BT474 cells): fewer and smaller colonies
